Values of other authors as cited in US8137579B2, “Non-aqueous heat transfer fluid and use thereof” (priority 1993, dated 2012).
Read-outs that look alike come from different tables or passages of the source.

Key:
[1] = tested on: laboratory rats
[2] = tested on: humans
[3] = laboratory rats, single dose, acute oral

In the case of CC(O)CO (stereo not drawn) [PG, propylene glycol], the LD50 rating [1, 3] is listed as 33700 mg/kg.

For CC(O)COC(C)COC(C)CO (stereo not drawn) [tripropylene glycol], the LD50 rating ([1]; rat, in vivo, po) is given as 3000 mg/kg.

For OCCO [EG, ethylene glycol], the LD50 rating [1, 3] is listed as 6100 mg/kg and the “toxic level to humans, reported as low as” value [2] is listed as 0.398 g/kg.

In the case of OCCOCCO [Diethylene glycol], the LD50 rating [1, 3] is given as 16600 mg/kg.

In the case of OCCOCCOCCO [triethylene glycol], the LD50 rating ([1]; rat, in vivo, po) is given as 22000 mg/kg.
